# Source: patent publication US7589097B2, “Triazol[4,5-d] pyramidine derivatives and their use as purinergic receptor antagonists” (Vernalis Research Limited, priority 2001, dated 2009)
# Structures can show the parent of a compound that is named as a salt.
row,Structure (SMILES),melting point [°C]
1,C[Si](C)(C)CCOCOc1cc([N+](=O)[O-])ccc1Cn1nnc2c(-c3ccco3)nc(N)nc21,136.5 to 137.6
2,Nc1nc(-c2ccco2)c2nnn(Cc3cc([N+](=O)[O-])cc([N+](=O)[O-])c3)c2n1,264.5 to 264.8
3,"Cc1ccc(-c2nc(N)nc3[nH]nnc23)o1 [Example 19, 7-(5-Methyl-2-furyl)-1H-[1,2,3]triazolo[4,5-d]pyrimidine-5-amine]",291.8 to 292
4,"Cc1cccc(Cn2nnc3c(-c4ccco4)nc(N)nc32)c1 [Example 23, 7-(2-furyl)-3-(3-methylbenzyl)-3H-[1,2,3]triazolo[4,5-d]pyrimidine-5-amine]",187.3 to 187.7
5,"Nc1nc(-c2ccco2)c2nnn(Cc3ccccn3)c2n1 [Example 24, 7-(2-Furyl)-3-(2-pyridylmethyl)-3H-[1,2,3]triazolo[4,5-d]pyrimidine-5-amine]",196.9 to 197.1
6,"Nc1nc(-c2ccco2)c2nnn(CC(=O)O)c2n1 [Example 26, (5-Amino-7-(2-furyl)-3H-[1,2,3]triazolo[4,5-d]pyrimidin-3-yl)acetic acid]",291 to 291.1
7,"Nc1nc(-c2ccco2)c2nnn(Cc3cccc(Cl)c3)c2n1 [Example 27, 3-(3-chlorobenzyl)-7-(2-furyl)-3H-[1,2,3]triazolo[4,5-d]pyrimidine-5-amine]",209.9 to 210.1
8,"COc1cccc(Cn2nnc3c(-c4ccco4)nc(N)nc32)n1 [Example 32, 7-(2-furyl)-3-(6-methoxy-2-pyridylmethyl)-3H-[1,2,3]triazolo[4,5-d]pyrimidine-5-amine]",191.4 to 192
9,"Nc1nc(-c2ccco2)c2nnn(Cc3cccs3)c2n1 [Example 33, 7-(2-furyl)-3-(2-thienylmethyl)-3H-[1,2,3]triazolo[4,5-d]pyrimidine-5-amine]",204.1 to 204.2
10,"Nc1nc(-c2cccs2)c2nnn(Cc3ccccc3F)c2n1 [Example 35, 3-(2-fluorobenzyl)-7-(2-thienyl)-3H-[1,2,3]triazolo[4,5-d]pyrimidine-5-amine]",174 to 174.2
11,"Cc1ccc(-c2nc(N)nc3c2nnn3Cc2cccc(N)c2)o1 [Example 36, 3-(3-aminobenzyl)-7-(5-methyl-2-furyl)-3H-[1,2,3]triazolo[4,5-d]pyrimidine-5-amine]",231.7 to 234
12,"Cc1cccc(Cn2nnc3c(-c4ccco4)nc(N)nc32)n1 [Example 37, 7-(2-furyl)-3-(6-methyl-2-pyridylmethyl)-3H-[1,2,3]triazolo[4,5-d]pyrimidine-5-amine]",200.8 to 218.9
13,"Cc1cnc(-c2nc(N)nc3c2nnn3Cc2ccccc2F)s1 [Example 38, 3-(2-fluorobenzyl)-7-(5-methyl-2-thiazolyl)-3H-[1,2,3]triazolo[4,5-d]pyrimidine-5-amine]",242 to 242.1
14,"Nc1nc(-c2cncs2)c2nnn(Cc3cccc([N+](=O)[O-])c3)c2n1 [Example 45, 3-(3-nitrobenzyl)-7-(5-thiazolyl)-3H-[1,2,3]triazolo[4,5-d]pyrimidine-5-amine]",190.4 to 190.8
15,"Nc1cccc(Cn2nnc3c(-c4cccs4)nc(N)nc32)c1 [Example 48, 3-(3-aminobenzyl)-7-(2-thienyl)-3H-[1,2,3]triazolo[4,5-d]pyrimidine-5-amine]",265.9 to 266
16,"Nc1cccc(Cn2nnc3c(-c4cncs4)nc(N)nc32)c1 [Example 50, 3-(3-aminobenzyl)-7-(5-thiazolyl)-3H-[1,2,3]triazolo[4,5-d]pyrimidine-5-amine]",228.2 to 228.3
17,"COc1ccc(F)c(Cn2nnc3c(-c4ccco4)nc(N)nc32)c1 [Example 51, 3-(2-fluoro-5-methyoxybenzyl)-7-(2-furyl)-3H-[1,2,3]triazolo[4,5-d]pyrimidine-5-amine]",182.9 to 183.1
18,"Nc1nc(-c2ccco2)c2nnn(CC(=O)Nc3ccccn3)c2n1 [Example 52, (5-amino-7-(2-furyl)-3H-[1,2,3]triazolo[4,5-d]pyrimidin-3-yl)-N-(2-pyridyl)acetamide]",263.8 to 264
19,"Nc1nc(-c2ccco2)c2nnn(CC(=O)NCc3ccccn3)c2n1 [Example 53, (5-amino-7-(2-furyl)-3H-[1,2,3]triazolo[4,5-d]pyrimidin-3-yl)-N-(2-pyridylmethyl)acetamide]",256.1 to 256.4
20,"Nc1nc(-c2ccco2)c2nnn(CC(=O)Nc3ccccc3)c2n1 [Example 54, (5-amino-7-(2-furyl)-3H-[1,2,3]triazolo[4,5-d]pyrimidin-3-yl)-N-phenylacetamide]",292.2 to 292.3
21,"Cc1cccc(Cn2nnc3c(-c4ccc(C)o4)nc(N)nc32)n1 [Example 59, 7-(5-methyl-2-furyl)-3-(6-methyl-2-pyridylmethyl)-3H-[1,2,3]triazolo[4,5-d]pyrimidine-5-amine]",187.9 to 188.7
22,"Cc1ccc(-c2nc(N)nc3c2nnn3Cc2c(F)cccc2F)o1 [Example 60, 3-(2,6-difluorobenzyl)-7-(5-methyl-2-furyl)-3H-[1,2,3]triazolo[4,5-d]pyrimidine-5-amine]",209.7 to 209.8
23,"Cc1ccc(-c2nc(N)nc3c2nnn3Cc2cccs2)o1 [Example 61, 7-(5-methyl-2-furyl)-3-(2-thienylmethyl)-3H-[1,2,3]triazolo[4,5-d]pyrimidine-5-amine]",193.8 to 194.1
24,"Cc1ccc(-c2nc(N)nc3c2nnn3Cc2cccc(Cl)c2)o1 [Example 62, 3-(3-chlorobenzyl)-7-(5-methyl-2-furyl)-3H-[1,2,3]triazolo[4,5-d]pyrimidine-5-amine]",210.4 to 210.5
25,"COc1ccnc(Cn2nnc3c(-c4ccco4)nc(N)nc32)c1 [Example 63, 7-(2-furyl)-3-(4-methoxy-2-pyridylmethyl)-3H-[1,2,3]triazolo[4,5-d]pyrimidine-5-amine]",201.1 to 201.2
26,"Nc1nc(-c2ccco2)c2nnn(Cc3cc(F)ccc3F)c2n1 [Example 65, 3-(2,5-difluorobenzyl)-7-(2-furyl)-3H-[1,2,3]triazolo[4,5-d]pyrimidine-5-amine]",208.1 to 208.2

# Next, values leading:
row,melting point [°C],Structure (SMILES)
1,214.6 to 215.2,"Cc1ccc(-c2nc(N)nc3c2nnn3Cc2ccccc2N)o1 (as salt: hydrochloride) [Example 74, 3-(2-aminobenzyl)-7-(5-methyl-2-furyl)-3H-[1,2,3]triazolo[4,5-d]pyrimidine-5-amine hydrochloride]"
2,235.8 to 236.5,"Cc1ccc(-c2nc(N)nc3c2nnn3Cc2cc(N)ccc2F)o1 (as salt: hydrochloride) [Example 84, 3-(5-amino-2-fluorobenzyl)-7-(5-methyl-2-furyl)-3H-[1,2,3]triazolo[4,5-d]pyrimidine-5-amine hydrochloride]"
3,221.4 to 221.5,"CNCc1cccc(Cn2nnc3c(-c4ccco4)nc(N)nc32)n1 (as salt: hydrochloride) [Example 226, 7-(2-Furyl)-3-(6-(N-methylamino)methyl-2-pyridylmethyl)-3H-[1,2,3]triazolo[4,5-d]pyrimidine-5-amine]"
4,227.5 to 228.5,"COc1ccc(Cn2nnc3c(-c4ccco4)nc(N)nc32)cc1OC (as salt: trifluoroacetate) [Example 122, 3-(3,4-dimethoxybenzyl)-7-(2-furyl)-3H-[1,2,3]triazolo[4,5-d]pyrimidine-5-amine trifluoroacetate salt]"
5,243.4 to 243.9,"COc1ccc([N+](=O)[O-])cc1Cn1nnc2c(-c3ccco3)nc(N)nc21 [Example 66, 7-(2-Furyl)-3-(2-methoxy-5-nitrobenzyl)-3H-[1,2,3]triazolo[4,5-d]pyrimidine-5-amine]"
6,252.9 to 253,"CNC(=O)c1cccc(Cn2nnc3c(-c4ccc(C)o4)nc(N)nc32)c1 [Example 67, 3-(5-amino-7-(5-methyl-2-furyl)-3H-[1,2,3]triazolo[4,5-d]pyrimidin-3-ylmethyl)-N-methylbenzamide]"
7,228.1 to 229.3,"CC(=O)NCc1cccc(Cn2nnc3c(-c4ccco4)nc(N)nc32)c1 [Example 68, N-(3-(5-amino-7-(2-furyl)-3H-[1,2,3]triazolo[4,5-d]pyrimidin-3-ylmethyl)benzyl)acetamide]"
8,228.7 to 228.9,"Nc1nc(-c2ccco2)c2nnn(Cc3cccc(F)n3)c2n1 [Example 71, 3-(6-fluoro-2-pyridylmethyl)-7-(2-furyl)-3H-[1,2,3]triazolo[4,5-d]pyrimidine-5-amine]"
9,195.4 to 196.5,"COc1ccccc1Cn1nnc2c(-c3ccc(C)o3)nc(N)nc21 [Example 72, 3-(2-methyoxybenzyl)-7-(5-methyl-2-furyl)-3H-[1,2,3]triazolo[4,5-d]pyrimidine-5-amine]"
10,178.7 to 179.3,"Cc1ccc(-c2nc(N)nc3c2nnn3Cc2cccc(CNC(=O)OC(C)(C)C)c2)o1 [Example 73, tert-butyl N-(3-(5-amino-7-(5-methyl-2-furyl)-3H-[1,2,3]triazolo[4,5-d]pyrimidine-3-ylmethyl)benzyl)carbamate]"
11,212.1 to 214.3,"COc1ccccc1Cn1nnc2c(-c3ccco3)nc(N)nc21 [Example 77, 7-(2-furyl)-3-(2-methoxybenzyl)-3H-[1,2,3]triazolo[4,5-d]pyrimidine-5-amine]"
12,308.2 to 308.3,"Nc1ccc(F)c(Cn2nnc3c(-c4ccco4)nc(N)nc32)c1 [Example 79, 3-(5-amino-2-fluorobenzyl)-7-(2-furyl)-3H-[1,2,3]triazolo[4,5-d]pyrimidine-5-amine]"
13,229.3 to 229.4,"Cc1ccc(-c2nc(N)nc3c2nnn3Cc2cccc(Cl)n2)o1 [Example 81, 3-(6-chloro-2-pyridylmethyl)-7-(5-methyl-2-furyl)-3H-[1,2,3]triazolo[4,5-d]pyrimidine-5-amine]"
14,205 to 205.3,"Cc1ccc(-c2nc(N)nc3c2nnn3Cc2cccc(-c3ccccc3)n2)o1 [Example 82, 7-(5-methyl-2-furyl)-3-(6-phenyl-2-pyridylmethyl)-3H-[1,2,3]triazolo[4,5-d]pyrimidine-5-amine]"
15,252.8 to 253.3,"Nc1cccc(Cn2nnc3c(-c4nccs4)nc(N)nc32)c1 [Example 83, 3-(3-aminobenzyl)-7-(2-thiazolyl)-3H-[1,2,3]triazolo[4,5-d]pyrimidine-5-amine]"
